The values that follow come from ChEMBL document CHEMBL1135279, “Design and synthesis of lignostilbene-alpha,beta-dioxygenase inhibitors” (Bioorg Med Chem Lett, 2002).

Test [1] has as its target T1, Lignostilbene alpha, beta-dioxygenase (Sphingomonas paucimobilis, UniProt O87171).
T1 sequence (O87171 whole entry): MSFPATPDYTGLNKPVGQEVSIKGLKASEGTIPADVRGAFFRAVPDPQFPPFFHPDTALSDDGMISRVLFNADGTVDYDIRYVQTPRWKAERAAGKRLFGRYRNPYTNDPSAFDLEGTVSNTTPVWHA
Kind of test: Inhibitory concentration against Lignostilbene-alpha, beta-dioxygenase (LSD) was determined in 2 mL of 50 mM […] buffer containing 4 microg enzyme/mL at 30 degree C.

The target of test [2] is T1, Lignostilbene alpha, beta-dioxygenase. Kind of test: Tested for the inhibition of Lignostilbene-alpha, beta-dioxygenase (LSD).
Test [3] shares this target. Kind of test: Inhibitory concentration against Lignostilbene alpha beta-dioxygenase (LSD) was determined in 2 mL of 50 mM […] buffer containing 4 microg enzyme/mL at 30 degree C.

Usually IC50 stands for the midpoint of a concentration-inhibition curve. For orientation: Ki means a measure of affinity in units of concentration, obtained from inhibition or displacement. Low readings indicate higher affinity, high ones lower affinity.

The structures appear in SMILES notation.

`C=C(C)c1ccc(O)cc1` yielded an IC50 in test [1] of 12 µM.
`Oc1ccc(/C(F)=C/c2ccccc2)cc1` displayed a Ki in test [2] of 0.98 µM. Further, the IC50 in test [1] was found to be 3 µM.
In test [3], `C/C(=C/c1ccccc1)c1ccccc1` gave an IC50 of 22 µM.
The molecule `C/C(=C\c1ccc(O)cc1)c1ccccc1` displayed an IC50 in test [1] of 15 µM.
On to `C/C(=C/c1ccc(O)cc1)c1ccccc1`, for which half-maximal inhibition in test [3] (IC50) required 7 µM.
The molecule `C/C(=C\c1ccccc1)c1ccccc1` returned an IC50 in test [1] of over 100 µM.
With `F/C(=C\c1ccccc1)c1ccccc1`, in test [1], the IC50 was over 100 µM.
